In brackets after ≈: the same amount, converted by molar mass. Where two headings read alike, the source gives them in different places.
Assays:
P. aeruginosa = assay: Biofilm growth assay (spreading biofilm on semi-solid agar); format: cell-based; design: P. aeruginosa (n=10): unit not given here; settings: for IC85: Pseudomonas aeruginosa; for P. aeruginosa (n=10): Table 6, inhibitory concentration in the biofilm growth assay, n = number of isolates tested
E. coli = assay: as above; format: cell-based; design: E. coli (n=10): unit: ug/mL; settings: for IC85: Escherichia coli; for E. coli (n=10): Table 6, inhibitory concentration in the biofilm growth assay, n = number of isolates tested
Method in brief: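 Spreading (swarming) biofilm on semi-solid agar: E. coli on LB with 0.6% agar and 0.5% glucose; P. aeruginosa on M8 agar with 0.2% glucose, 100 µM CaCl2, 1 mM MgSO4, 0.5% Casamino acids. Compound in medium; 5 µL overnight culture spotted centrally, 37°C overnight. Value: concentration (µg/ml) giving ≥85% reduction in spread area versus negative control.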

Burkholderia cepacia = assay: Biofilm growth assay, multiple isolates; format: cell-based; settings: Table 6; inhibitory concentration in the biofilm growth assay; n = number of isolates tested
Protocol: (§1) The biofilm growth assay was carried out to measure swarming or biofilm spreading on semi-solid agar media in round plates (for example, 100 × 15 mm), also referred to as Petri dishes. For E. coli, the plates contained LB medium with 0.6% agar and 0.5% glucose. P. aeruginosa plates were made with M8 agar supplemented with 0.2% glucose, 100 µM CaCl2, 1 mM MgSO4, and 0.5% Casamino acids. The agar plates of this assay consisted of 0.4% to 0.7% agar (Bacto or Noble agar), although other media may also be used as described in the literature and known to those skilled in the art. Test compounds at the desired concentration were added to the cooled, autoclaved media. Portions of the media were then poured into the plates (20 mL/plate), and the plates allowed to dry at room temperature for approximately 3 to 4 hours. Alternatively, however, plates may be dried in a laminar flow hood for approximately fifteen to twenty minutes. Overnight cultures were grown in a 37°C shaker in LB (E. coli) or TSB (P. aeruginosa). Plates were inoculated by placing 5 µL of the appropriate overnight culture in the centers of the plates. The plates then were incubated overnight at 37°C. The area of the zone of spreading bacteria was then measured and replicates are averaged. Percent inhibition was calculated as 100 × (area without compound - area with compound)/(area without compound). An active compound was considered that which reduces the area of the spreading biofilm compared to negative controls by greater than or equal to 85%. The values shown in Table 1 are the concentrations of compounds (µg/ml) tested in the biofilm growth assay that reduce the area of the spreading biofilm compared to negative controls by greater than or equal to 85% unless noted differently in Table 1. A > ("greater than" symbol) as used in Table 1 is well understood to those skilled in the art as an indication that the listed concentration was not effective at this concentration.
(§2) Table 6, below, lists the inhibitory concentrations of select compounds and antibiotics in the biofilm growth assay against various gram-negative bacterial biofilms. "N" means the number of isolates of bacteria tested. The biofilm growth assay procedure detailed in Example I, above, was followed. Burkholderia cepacia used media consisting of M9 salts, 100 µM CaCl2, 1 mM MgS04, and 0.7% citrate in 0.4% Noble agar. Salmonella spp. used media consisting of Nutrient Broth with 0.5% glucose in 0.5% Noble agar.

Salmonella spp. = assay: Biofilm growth assay, multiple isolates; format: cell-based; settings: Table 6; inhibitory concentration in the biofilm growth assay; n = number of isolates tested
Protocol: as §1, §2

[1] = Bioavailability in mice (serum level after oral or IP administration); format: in vivo; settings: orally or via IP injection at approximately 20 mg/kg to 50 mg/kg; 30 minutes or 1 hour after administration
Protocol: The bioavailabilities of certain compounds were examined in mice. Administration of the compounds was performed orally and by intraperitoneal (IP) injection using a vehicle as known to those skilled in the art. Many vehicles can be used to examine bioavailability. Prior to administration, each vehicle was optimized based on compound solubility according to the formulation research conducted by Uckun et al. (Arznelmittel-Forschung (Drug Research) 2007; 57(4):218-226). […] The concentration of PEG400 is modulated depending upon solubility of the compounds and the amount of aqueous phase added (0.02 M citrate and 0.9% NaCl).

Pseudomonas syringae = assay: Biofilm growth assay, plant pathogens; format: cell-based; settings: 0.5% Noble agar, 30°C, approximately 24 to 48 hours
Xanthomonas campestris = assay: Biofilm growth assay, plant pathogens; format: cell-based; settings: 0.5% Noble agar, 30°C, approximately 24 to 48 hours
[2] = test system: Pectobacterium atrosepticum; assay: Biofilm growth assay, plant pathogens; format: cell-based; settings: 0.5% Noble agar, 30°C, approximately 24 to 48 hours
P. aeruginosa biofilm = assay: Biofilm growth assay with antibiotic disks (synergy); format: cell-based; settings: 0.125 µg/ml in the agar with colistin 10 µg disks
Protocol: INHIBITION OF THE GROWTH OF PREFORMED BIOFILMS. The Biofilm Growth Assay as described in Example VII was performed in round plates with the compounds of the invention in agar on half of the plate and antibiotic disks placed onto the agar containing the compounds of the invention.
The Biofilm Growth Assay was performed as described in Example VIII. 2 to 4 antibiotic disks were placed onto the agar containing a compound of the invention in a line parallel to the line that separates the two agars in one round plate. Appropriate negative and positive control plates were performed as known to those skilled in the art.

Evaluation of salts = format: physicochemical
Protocol: Evaluation of Compound 62 (Table 4) salt formation was performed. […] As stated herein, the invention also includes compounds and their salts. Evaluation of Compound 64 (Table 4) salt formation was performed. HCl (mono and bis), p-TSA (bis), BSA (bis), MSA (bis), H2SO4 (mono), and H3PO4 (mono) provided salts with crystallinity. […] As stated herein, the invention also includes compounds and their salts.

[3] = Table 1, concentration that reduces the area of the spreading biofilm vs negative controls by >= 85%, > means not effective at this concentration, read-out: P. aeruginosa
[4] = Table 2, concentration that reduces the area of the spreading biofilm by >= 85%
[5] = Table 1, concentration that reduces the area of the spreading biofilm vs negative controls by >= 85%, > means not effective at this concentration, read-out: E. coli
[6] = Table 4, concentration that reduces the area of the spreading biofilm by >= 85%, read-out: P. aeruginosa
[7] = Table 4, concentration that reduces the area of the spreading biofilm by >= 85%, read-out: E. coli

In the case of CC1(C)CC[C@]2(C(=O)O)CC[C@]3(C)C(=CCC4[C@@]5(C)Cc6c(n[nH]c6N)C(C)(C)C5CC[C@]43C)C2C1 (stereo in doubt) [Compound 1, (4aS,6aS,6bR,13aR)-12-Amino-2,2,6a,6b,9,9,13a-heptamethyl-2,3,4,4a,5,6,6a,6b,7,8,8a,9,11,13,13a,13b,14,15b-octadecahydro-1H-chryseno[1,2-f]indazole-4a-carboxylic acid], the “growth of the spreading P. aeruginosa biofilm (Figure 1)” value (P. aeruginosa; 0.5 µg/ml in the agar, overnight incubation at 37°C) is reported as “prevented the growth of the spreading P. aeruginosa biofilm”, the optimal working concentration (P. aeruginosa; Figure 2 legend) is reported as 0.5 µg/mL and the IC85 (P. aeruginosa; [3]) is reported as 0.5 µg/mL (≈ 1.01 µM). The “P. aeruginosa” value (P. aeruginosa; [4]) was 0.5 µg/mL, the “P. aeruginosa (n=10)” value (P. aeruginosa) was 1 and the IC85 (E. coli; [5]) was 1 µg/mL (≈ 2.03 µM). The “E. coli” value (E. coli; [4]) was 1 µg/mL, the “E. coli (n=10)” value (E. coli) was 1 and the inhibitory concentration (Burkholderia cepacia) was 0.25. The “inhibitory concentration in biofilm growth assay” value (Salmonella spp.) was 1, the “concentration in the serum of mice” value [1] was over 5000 ng/mL and the “concentration found to inhibit the spreading biofilms” value (Pseudomonas syringae) was 0.03 µg/mL. The “concentration found to inhibit the spreading biofilms” value (Xanthomonas campestris) was 0.5 µg/mL, the “concentration found to inhibit the spreading biofilms” value [2] was 0.06 µg/mL and the “combination with colistin at preventing the growth of P. aeruginosa biofilms (Figure 2)” value (P. aeruginosa biofilm) was “synergistic”.
For CC1(C)CC[C@]2(C(=O)O)CC[C@]3(C)C(=C(c4cccnc4)CC4[C@@]5(C)Cc6c(n[nH]c6N)C(C)(C)[C@@H]5CC[C@]43C)[C@@H]2C1 (stereo partly drawn) [Compound 12, (4aS,6aS,6bR,8aR,13aR,15bS)-12-Amino-2,2,6a,6b,9,9,13a-heptamethyl-15-(pyridin-3-yl)-2,3,4,4a,5,6,6a,6b,7,8,8a,9,11,13,13a,13b,14,15b-octadecahydro-1H-chryseno[1,2-f]indazole-4a-carboxylic acid], the IC85 (P. aeruginosa; Table 2, concentration that reduces the area of the spreading biofilm by >= 85%, read-out: P. aeruginosa) was 0.5 µg/mL (≈ 0.876 µM), the IC85 (E. coli; Table 2, concentration that reduces the area of the spreading biofilm by >= 85%, read-out: E. coli) was 1 µg/mL (≈ 1.75 µM) and the “concentration in the serum of mice” value [1] was over 5000 ng/mL.
With CC1(C)CC[C@]2(C(N)=O)CC[C@]3(C)C(=CCC4[C@@]5(C)Cc6c(n[nH]c6N)C(C)(C)C5CC[C@]43C)C2C1 (stereo partly drawn) [Compound 62, (4aS,6aS,6bR,13aR)-12-Amino-2,2,6a,6b,9,9,13a-heptamethyl-2,3,4,4a,5,6,6a,6b,7,8,8a,9,11,13,13a,13b,14,15b-octadecahydro-1H-chryseno[1,2-f]indazole-4a-carboxamide] the IC85 (P. aeruginosa; [6]) was 1 µg/mL (≈ 2.03 µM), the IC85 (E. coli; [7]) was 1 µg/mL (≈ 2.03 µM) and the “physical properties compared to freebase” value (Evaluation of salts; p-toluenesulfonic acid (mono) and H3PO4 (bis) salts) was “most desirable physical properties”.
In the case of CN(C)C[C@]12CCC(C)(C)CC1C1=CCC3[C@@]4(C)Cc5c(n[nH]c5N)C(C)(C)C4CC[C@@]3(C)[C@]1(C)CC2 (stereo partly drawn) [Compound 64, (4aS,6aS,6bR,13aR)-4a-((Dimethylamino)methyl)-2,2,6a,6b,9,9,13a-heptamethyl-2,3,4,4a,5,6,6a,6b,7,8,8a,9,11,13,13a,13b,14,15b-octadecahydro-1H-chryseno[1,2-f]indazol-12-amine], the IC85 (P. aeruginosa; [6]) is reported as 0.5 µg/mL (≈ 0.987 µM), the IC85 (E. coli; [7]) is reported as 1 µg/mL (≈ 1.97 µM) and the “concentration in the serum of mice” value [1] is reported as over 5000 ng/mL. The “aqueous solubility compared to freebase” value (Evaluation of salts; Bis-MSA and mono-H3PO4 salts) was “increased aqueous solubility”.
For CC1(C)CC[C@]2(c3cc(O)[nH]n3)CC[C@]3(C)C(=CCC4[C@@]5(C)Cc6c(n[nH]c6N)C(C)(C)C5CC[C@]43C)C2C1 (stereo partly drawn) [Compound 68, 3-((4aS,6aS,6bR,13aR)-12-Amino-2,2,6a,6b,9,9,13a-heptamethyl-2,3,4,4a,5,6,6a,6b,7,8,8a,9,11,13,13a,13b,14,15b-octadecahydro-1H-chryseno[1,2-f]indazol-4a-yl)-1H-pyrazol-5-ol], the IC85 (P. aeruginosa; read-out: P. aeruginosa (µg/ml)) was 0.5 µg/mL (≈ 0.94 µM), the IC85 (E. coli; read-out: E. coli (µg/ml)) was 0.5 µg/mL (≈ 0.94 µM) and the “concentration in the serum of mice” value [1] was over 5000 ng/mL.
With CC1(C)CC[C@]2(C(=O)O)CC[C@]3(C)C(=CC[C@@H]4[C@@]5(C)CC[C@H](O)C(C)(C)[C@@H]5CC[C@]43C)[C@@H]2C1 [Oleanolic acid, reference compound] the IC85 (P. aeruginosa; [3]) was 4 µg/mL (≈ 8.76 µM), the “P. aeruginosa (n=10)” value (P. aeruginosa) was 8 and the IC85 (E. coli; [5]) was over 8 µg/mL. For the same compound, the “E. coli (n=10)” value (E. coli) was 16, the inhibitory concentration (Burkholderia cepacia) was 0.5 and the “inhibitory concentration in biofilm growth assay” value (Salmonella spp.) was over 64.
With NC[C@H]1O[C@H](O[C@H]2[C@H](O)[C@@H](O[C@H]3O[C@H](CO)[C@@H](O)[C@H](N)[C@H]3O)[C@H](N)C[C@@H]2N)[C@H](N)C[C@@H]1O [Tobramycin, tobramcyin, reference compound] the “P. aeruginosa (n=10)” value (P. aeruginosa) was 4, the “E. coli (n=10)” value (E. coli) was 16 and the inhibitory concentration (Burkholderia cepacia) was over 64. The “inhibitory concentration in biofilm growth assay” value (Salmonella spp.) was 8.

— patent EP2712863B1, “Novel inhibitors of bacterial biofilms and related methods” (Sequoia Sciences, Inc., priority 2012, dated 2014)
